Test results taken from patent publication US20130331326A1, “METHOD OF INDUCING HEMATOPOIETIC RECONSTRUCTION” (DUKE UNIVERSITY, priority 2011, published 2013).
Entries after “also recorded” stand apart in the source; their conditions may differ.

What was measured:
Format in all cases: cell-based, mouse
DNA-PK = assay: Phosphorylation of DNA-PK in irradiated BM lin- cells; details: 300 cGy BM lin- cells, EGF 20 ng/ml, vs cytokines alone
Experimental: The phosphorylation of the T2647 domain of DNA-PK was measured using immunofluorescence and flow cytometric analysis. […] Cells were separated onto a glass slide, fixed with 4% paraformaldehyde and permeabilized with 0.3% Triton-X. Cells were stained with rabbit polyclonal DNA-PK or rabbit IgG (Abeam, Cambridge, Mass.) and donkey anti-rabbit Alexafluor 488 antibody and counterstained with Hoechst 33342 (Life Technologies, Grand Island, N.Y.).

BM KSL cells [1] = assay: Cell cycle analysis (Ki67/7-AAD) of irradiated BM KSL cells
Experimental: Cell apoptosis and necrosis were analyzed by flow cytometry according to manufacturer's protocols with Annexin V-FITC and 7-AAD staining (BD, San Jose, Calif.). […] Cells were fixed and permeabilized with Fix Buffer I and Perm Buffer III (BD), and then stained with mouse anti-phospho-AKT-S473 PE (BD) or isotype control. Cell cycle analysis was performed by flow cytometric analysis modified from previous reports (Jordan et al, Exp. Hematol. 24:1347-1355 (1996), Chute et al, Hum. Gene Ther. 11:2515-2528 (2000), Sungartz et al, Blood 119:1308-1309 (2012)). Briefly, cells were fixed and permeabilized with 0.25% Saponin (Calbiochem, La Jolla, Calif.), 2.5% paraformaldehyde, 2% FBS in 1×PBS, and then labeled with Ki67-FITC and 7-AAD (BD). BM lin^− cells from VavCre;EGFR^+/+ or VavCre;EGER^fl/fl were cultured with TSF or TSF+10 μM erlotinib, or TSF following 300 cGy for 72 hours, and then collected for total cell counts and CFCs analysis.

BM KSL cells [2] = assay: Culture of non-irradiated BM KSL cells with TSF with and without EGF; details: TSF + 20 ng/ml EGF, 7 days, vs cytokines alone
MAPK = assay: Phosphorylation of MAPK in irradiated BM KSL cells; details: EGF treatment of irradiated BM KSL cells in culture; data not shown
Source text: EGFR signaling can activate multiple signaling cascades, including the MAPK and PI3k/Akt signaling pathways (Sordella et al, Science 305:1163-1167 (2004), Yang et al, Nature 480:118-122 (2011), Hynes and Lane, Nat. Rev. Cancer 5:341-354 (2005), Wheeler et al, Nat. Rev. Clin. Oncol. 7:493-507 (2010)). […] A further examination was made of whether inhibition of Akt signaling could negate EGF-mediated induction of BM stem/progenitor cell cycling following irradiation.

BM KSL cells [3] = assay: Culture of 300 cGy-irradiated BM KSL cells with BM ECs or TSF cytokines; CFC and CFU-S12 recovery
Experimental: BM cells were collected into PBS (Cellgro, Manassas, Va.) with 10% fetal bovine serum (Hyclone, Logan, Utah) and 1% penicillin/streptomycin (GIBCO, Grand Island, N.Y.). Viable BM cells were quantified using Trypan Blue Stain (Lonza, Basel, Switzerland) to exclude apoptotic and dead cells. Cells were then incubated with anti-c-kit, anti-Sca-1, anti-lineage cocktail, anti-CD41, anti-CD48, and anti-CD150 antibodies (Biolegend and eBiosciences, San Diego, Calif.; BD, San Jose, Calif.) to measure ckit^+sca-1^+lin^− (KSL) progenitor cells or CD150′CD41^−CD48^−KSL (SLAM/KSL) as previously described (Kiel et al, Cell 121:1109-1121 (2005)). Colony forming cells (CFCs) and CFU-S12 assays were also performed to measure functional hematopoietic stem/progenitor cell content. For CFCs, either whole BM or cultured lineage−cells, or KSL cells were plated onto methylcellulose (StemCell Technologies, Vancouver, BC, Canada), and colonies were scored on day 14. 1×10^5 BM or 2×10^5 cells were collected from donor mice and injected via tail vein into recipient C57B16 mice that had been given 950 cGy TBI. At day +12 post-injection, spleens from recipient mice were harvested and stained with Bouin's fixative solution (Ricca Chemical Company, Arlington, Tex.), and colonies were counted as previously described (Till and MeRadiat. Res. 14:213-222 (1961)). Complete blood counts were performed on a HemaVet 950 (Drew Scientific, Dallas, Tex.). […]

EGFR = assay: Phosphorylation of EGFR-Y845 in BM KSL cells in culture; details: wild type BM KSL cells treated with EGF in vitro (20 ng/mL, 15 minutes)
BM 34-KSL cells = assay: Competitive transplantation of the progeny of cultured BM 34-KSL cells; details: progeny of 300 cGy-irradiated, EGF-treated BM 34-KSL cells; 8 weeks post-transplant
[4] = 300 cGy, cytokines + EGF, 72 hours of culture
[5] = 20 ng/mL EGF added to non-contact FL/+ EC cultures of 300 cGy-irradiated BM KSL cells, vs FL/+ ECs alone
[6] = EGF added to irradiated BM KSL cells cultured with cytokines (TSF), day 7, vs cytokines alone

Substance: EGF: epidermal growth factor; recombinant EGF (R&D Systems)
- phospho-DNA-PK levels by immunofluorescence staining (DNA-PK; 15 minutes): increased phospho-DNA-PK; also recorded: significant increase
- phospho-DNA-PK levels by FACS analysis (DNA-PK; 1 hour): increased phospho-DNA-PK; also recorded: significant increase
- cycling of BM KSL cells from Tie2Cre;Bak1-/-;BaxFl/- mice (BM KSL cells [1]; 300 cGy in vitro, TSF + 20 ng/ml EGF, 72 hours, vs TSF): significantly decreased G0 cells and increased G2/S/M cells; also recorded: significantly increased the cycling
- KSL cells in G1 (BM KSL cells [1]; [4]): 51%
- KSL cells in G2/S/M phase (BM KSL cells [1]; [4]): 31%
- KSL cells remaining in G0 (BM KSL cells [1]; [4]): 17%
- expansion of BM KSL cells and CFU-S12 (BM KSL cells [2]): increased significantly; also recorded: significant expansion
- phosphorylation of MAPK (MAPK): did not alter the phosphorylation of MAPK
- increase in CFCs recovered at day 7 (BM KSL cells [3]; [5]): 2.2 fold
- increase in CFU-S12 recovered at day 7 (BM KSL cells [3]; [5]): 2.6 fold
- recovery of CFCs in culture (BM KSL cells [3]; 300 cGy BM KSL cells from Tie2Cre;Bak1-/-;BaxFl/- mice, TSF + 20 ng/ml EGF, 72 hours, vs cytokines alone): increased CFCs; also recorded: increase in recovery of CFCs
- increase in CFCs (BM KSL cells [3]; [6]): 3 fold
- increase in CFU-S12 (BM KSL cells [3]; [6]): 4 fold
- increase in BM CFC recovery (BM KSL cells [3]; EGF treatment, 72 hours following radiation exposure, vs TSF alone): 3 fold
- regeneration of BM stem and progenitor cells (CFC, CFUS12) (BM KSL cells [3]; Example 1, 300 cGy KSL cells, 7 days with BaxFl+ endothelial cells with and without EGF): induced regeneration of BM stem and progenitor cells
- EGFR signaling as measured by EGFR phosphorylation (EGFR): induced EGFR signaling
- donor hematopoietic cell repopulation, higher vs cytokine cultures alone (BM 34-KSL cells): 3 fold
